Assays:
hMAO-B = target: T1, hMAO-B (Homo sapiens, UniProt P27338); test: In vitro hMAO-B inhibition, spectrophotometric Kynuramine deamination assay; assay type: biochemical
T1 construct: purchased Sigma-Aldrich; host or cells: insect cells (BTI-TN-5B1-4), recombinant baculovirus
T1 sequence (P27338 1-520): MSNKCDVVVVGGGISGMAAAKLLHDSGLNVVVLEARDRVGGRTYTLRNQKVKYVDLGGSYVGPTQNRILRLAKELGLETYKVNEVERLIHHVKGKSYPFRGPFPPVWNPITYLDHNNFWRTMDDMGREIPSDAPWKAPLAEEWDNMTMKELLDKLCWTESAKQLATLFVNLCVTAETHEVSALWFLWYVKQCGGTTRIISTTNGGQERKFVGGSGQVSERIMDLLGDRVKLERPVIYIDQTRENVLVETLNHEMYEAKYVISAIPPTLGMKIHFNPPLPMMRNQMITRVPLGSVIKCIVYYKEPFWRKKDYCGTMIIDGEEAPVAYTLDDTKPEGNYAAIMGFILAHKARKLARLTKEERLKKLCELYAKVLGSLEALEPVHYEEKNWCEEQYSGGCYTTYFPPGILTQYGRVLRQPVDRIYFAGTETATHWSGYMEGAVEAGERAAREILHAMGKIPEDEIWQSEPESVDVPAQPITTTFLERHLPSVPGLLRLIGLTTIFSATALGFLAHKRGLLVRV
Procedure: (§1) To this end, a spectrophotometric method based on the oxidative deamination of Kynuramine by recombinant hMAO-A or hMAO-B was used.
(§2) The inhibitory activity of Bergamottin on hMAO-A and hMAO-B was studied using an experimental protocol described elsewhere. The hMAO inhibitory activity was assessed in microsomal MAO isoforms prepared from insect cells (BTI-TN-5B1-4) infected with recombinant baculovirus containing cDNA inserts for hMAO-A or hMAO-B, and by measuring the enzymatic conversion rates of Kynuramine into 4-hydroxyquinoline. […] All assays were performed in sodium phosphate buffer solution 50 mM pH 7.4.
(§3) Then, the reaction was started with the addition of hMAO-A or hMAO-B. Initial velocities were determined spectrophotometrically in a microplate reader (BioTek Synergy HT from BioTek Instruments, Winooski, VT, USA) at 37 °C by measuring the formation of 4-hydroxyquinoline at 316 nm, over a period of at least 30 min (interval of 1 min). Data were analyzed using GraphPad PRISM version 6 for Windows (GraphPad Software®, San Diego, CA, USA). […] IC50 values were obtained from dose–response curves and were expressed as mean ± standard deviation. IC50 values were determined from at least three independent experiments, each performed in triplicate. […]

hMAO-A = target: T2, hMAO-A (Homo sapiens, UniProt P21397); test: In vitro hMAO-A inhibition, spectrophotometric Kynuramine deamination assay; assay type: biochemical
T2 construct: purchased Sigma-Aldrich; host or cells: insect cells (BTI-TN-5B1-4), recombinant baculovirus
T2 sequence (P21397 1-527): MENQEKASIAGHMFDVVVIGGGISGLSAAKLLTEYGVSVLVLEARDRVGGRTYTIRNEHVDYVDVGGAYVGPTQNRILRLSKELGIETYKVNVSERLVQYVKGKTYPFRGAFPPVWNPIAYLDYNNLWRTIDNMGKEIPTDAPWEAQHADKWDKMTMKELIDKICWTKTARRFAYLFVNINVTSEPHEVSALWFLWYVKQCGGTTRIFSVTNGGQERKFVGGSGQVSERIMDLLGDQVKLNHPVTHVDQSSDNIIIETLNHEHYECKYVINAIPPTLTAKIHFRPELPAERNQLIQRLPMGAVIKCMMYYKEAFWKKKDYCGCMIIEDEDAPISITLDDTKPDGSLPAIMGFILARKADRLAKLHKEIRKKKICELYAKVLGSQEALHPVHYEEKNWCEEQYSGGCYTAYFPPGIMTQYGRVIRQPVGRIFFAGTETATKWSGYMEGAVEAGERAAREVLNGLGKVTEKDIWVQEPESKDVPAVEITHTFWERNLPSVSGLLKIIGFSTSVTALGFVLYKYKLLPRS
Procedure: as §1, §2, §3

IC50 (hMAO-B; recombinant hMAO-B, Kynuramine substrate): 0.291 µM | SI (selectivity index) (hMAO-B; selectivity for hMAO-B over hMAO-A from the IC50 values): 31.8 | IC50 (hMAO-A): 9.25 ± 0.91 µM
Compound: CC(C)=CCC/C(C)=C/COc1c2ccoc2cc2oc(=O)ccc12 [Bergamottin]
